From article PMC8443589, “Modelling human liver fibrosis in the context of non-alcoholic steatohepatitis using a microphysiological system” (Communications Biology, 2021)

Assays:
Assay type in all cases: cell-based, human
[1] = test system: liver MPS NASH model (PHH, KC and HSC co-cultures); test: Cue study: albumin production (ELISA)
[2] = test system: liver MPS NASH model (PHH, KC and HSC co-cultures); test: Cue study: secreted cytokines and chemokines (Luminex) with varying NPC number and added cues (Fig 5a, 5b)
Source text: There is only limited understanding of the pathogenic drivers of NASH and their interaction, principally due to a lack of translational models that are amenable to detailed molecular analysis[2],[34]. Here, a systems biology ‘cue-signal-analysis’ paradigm[35],[36] was utilised to produce large factorial datasets to enable the identification of molecular pathways of importance. […] To create varying set ups of the NASH microtissues we created hepatocyte microtissues in the MPS with high numbers of NPC (60,000 KC and HSC—equivalent to 10% of microtissue population) and low numbers of NPCs (6000 KC and HSC—equivalent to 1% of microtissue), representing physiological and non-physiological cell ratios respectively. Next, we took these different microtissues and cultured them in media with or without FFA. Finally, we supplemented the media with lipopolysaccharide (LPS), TGFβ, fructose or cholesterol either as single ‘cues’, in pairs or all together (Fig. 4a). ‘Cues’ were selected for clinical association with NASH. LPS, is a pleiotropic inflammatory molecule, it is proposed to reach the liver via the hepatic portal vein after release from the gastrointestinal tract, contributing to disease progression[37],[38]. TGFβ has been extensively studied in relation to fibrosis due to its regulation of genes controlling collagen and matrix-modifying enzymes. Fructose is a key substrate for de-novo lipogenesis, a process that has been identified as a key event in lipid accumulation within NAFLD patients. Finally, cholesterol accumulation has also been linked to NASH disease aetiology.
Assessment of gene expression changes was supplemented by assessment of the secretome produced by NASH microtissues in the MPS after exposure to the various cues. Increased pro-inflammatory cytokine secretion is a defining characteristic in NASH patients, so we conducted a Luminex cytokine array covering 42 different biomarkers, cytokines and chemokines secreted into the culture media of the different microtissues at multiple time points. […]

[3] = test system: liver MPS NASH model (PHH, KC and HSC co-cultures); test: Cue study: pro-fibrotic biomarkers TIMP-1, pro-collagen 1, fibronectin (Fig 5c); settings: fat medium + cue
Source text: Assessment of gene expression changes was supplemented by assessment of the secretome produced by NASH microtissues in the MPS after exposure to the various cues. Increased pro-inflammatory cytokine secretion is a defining characteristic in NASH patients, so we conducted a Luminex cytokine array covering 42 different biomarkers, cytokines and chemokines secreted into the culture media of the different microtissues at multiple time points. We consistently detected 27 out of the 42 biomarkers and observed that there was differential expression of cytokines and chemokines driven by the different cues applied to the micro-tissue (Fig. 5a, b). The LPS cue and the presence of higher NPC numbers were responsible for driving the largest increase in cytokine and chemokine release, with the largest increases in cytokines measured on day 14 (Fig. 5b). […] Similarly, to the cytokine production, these changes were not further enhanced by combining cues, as all the cue combinations containing TGFβ had the highest expression (Supp. Fig. 17c).
Fig. 5 Systems biology interrogation of liver MPS NASH model to determine physiologically relevant cues that promote soluble biomarker changes to mimic advanced NASH disease state. PHH, KC and HSC co-cultures were cultured in the MPS platform under a variety of conditions for 14 days to test number of NPCs, presence of fat, fructose, cholesterol, LPS and TGFβ for effects on the soluble biomarker profile of the liver MPS NASH model. Expression of biomarkers, cytokines and chemokines were compared, all concentrations were normalised by Z-transformation to allow comparison and shown relative to mean for each marker (white = not detected). a Cytokine expression compared with varying levels of NPCs; b for the high NPC group in the presence of additional cues; c Expression of pro-fibrotic biomarkers with varying NPC content and with additional varying cues in high NPC condition (additional data in Supp. Fig. 17). d Graphical summary of the changes that occur in the NASH model in the presence of Fat and Fat + TGFβ. All data were generated from a minimum of three independent replicate samples per condition.
The MPS LC12 plates consists of 12 individual bioreactors that contain pneumatically driven micro-pumps to recirculate cell culture medium through a collagen-coated scaffold. Cells were cultured using the protocol previously described[20],[21], but briefly, PHH were seeded at a density of 6 × 10^5 viable cells per well on the LC12 plates with each NPC population (KC and/or HSC) at a density of 6 × 10^4 viable cells per well. Each well contained a final volume of 1.6 mL of medium per well and maintained under a flow rate of 1.0 µL/s. Cells were seeded in Williams E medium containing primary hepatocyte thawing and plating supplements (Life Technologies, USA) and cultured initially under downward flow for 8 h before the flow was automatically reversed to upward flow for the next 16 h of culture. Microtissues were then cultured in either HEP-Lean or HEP-Fat medium, both media’s are proprietary to CN Bio Innovations Ltd. The HEP-Fat medium is a derivative of the HEP-LEAN medium and contains a mixture of saturated and unsaturated FFAs, as well as physiologically relevant quantities of insulin and sugars. Complete media changes were performed on all wells every 48–72 h. For certain experiments, the media was supplemented with additional additives from day 4 onwards: 1 ng/ml LPS (lipopolysaccharides from Escherichia coli O111:B4) (Sigma Aldrich, UK), 1 ng/ml recombinant TGF beta 1 protein (Abcam, UK); 500 µM Fructose (Sigma Aldrich, UK), 50 µg/ml Cholesterol (Sigma Aldrich, UK). […]

CC(C)CCC[C@@H](C)[C@H]1CC[C@H]2[C@@H]3CC=C4C[C@@H](O)CC[C@]4(C)[C@H]3CC[C@]12C [Cholesterol]
Albumin production [1]: to a lesser extent
EGF relative expression (z-transformation) ([2]; Day 6, Fat media + cue): -2.017
Eotaxin relative expression (z-transformation) ([2]; Day 6, Fat media + cue): -0.7967
FGF-2 relative expression (z-transformation) ([2]; Day 6, Fat media + cue): -0.2249
Fit-3L relative expression (z-transformation) ([2]; Day 6, Fat media + cue): -1.968
Fractalkine relative expression (z-transformation) ([2]; Day 6, Fat media + cue): -1.501
G-CSF relative expression (z-transformation) ([2]; Day 6, Fat media + cue): -0.1828
GM-CSF relative expression (z-transformation) ([2]; Day 6, Fat media + cue): -0.6958
GRO relative expression (z-transformation) ([2]; Day 6, Fat media + cue): -0.8479
IFN-a2 relative expression (z-transformation) ([2]; Day 6, Fat media + cue): -1.086
IL-1RA relative expression (z-transformation) ([2]; Day 6, Fat media + cue): -1.579
IL-4 relative expression (z-transformation) ([2]; Day 6, Fat media + cue): -1.537
IL-6 relative expression (z-transformation) ([2]; Day 6, Fat media + cue): -0.8492
IL-7 relative expression (z-transformation) ([2]; Day 6, Fat media + cue): -1.138
IL-8 relative expression (z-transformation) ([2]; Day 6, Fat media + cue): -1.037
IL-15 relative expression (z-transformation) ([2]; Day 6, Fat media + cue): -1.447
IP-10 relative expression (z-transformation) ([2]; Day 6, Fat media + cue): -1.086
MCP-1 relative expression (z-transformation) ([2]; Day 6, Fat media + cue): -1.585
MCP-3 relative expression (z-transformation) ([2]; Day 6, Fat media + cue): -1.263
MDC relative expression (z-transformation) ([2]; Day 6, Fat media + cue): -0.4545
MIP-1a relative expression (z-transformation) ([2]; Day 6, Fat media + cue): -0.7293
MIP-1b relative expression (z-transformation) ([2]; Day 6, Fat media + cue): -0.9104
TNFa relative expression (z-transformation) ([2]; Day 6, Fat media + cue): -0.774
VEGF relative expression (z-transformation) ([2]; Day 6, Fat media + cue): -0.01821
EGF relative expression (z-transformation) ([2]; Day 11, Fat media + cue): 1.504
Eotaxin relative expression (z-transformation) ([2]; Day 11, Fat media + cue): -0.8044
FGF-2 relative expression (z-transformation) ([2]; Day 11, Fat media + cue): 0.794
Fractalkine relative expression (z-transformation) ([2]; Day 11, Fat media + cue): -1.145
G-CSF relative expression (z-transformation) ([2]; Day 11, Fat media + cue): -0.8882
GRO relative expression (z-transformation) ([2]; Day 11, Fat media + cue): -1.084
IFN-a2 relative expression (z-transformation) ([2]; Day 11, Fat media + cue): -0.9638
IL-1RA relative expression (z-transformation) ([2]; Day 11, Fat media + cue): -1.623
IL-4 relative expression (z-transformation) ([2]; Day 11, Fat media + cue): -1.08
IL-6 relative expression (z-transformation) ([2]; Day 11, Fat media + cue): -0.9589
IL-7 relative expression (z-transformation) ([2]; Day 11, Fat media + cue): -0.957
IL-8 relative expression (z-transformation) ([2]; Day 11, Fat media + cue): -1.364
IL-15 relative expression (z-transformation) ([2]; Day 11, Fat media + cue): -1.997
IP-10 relative expression (z-transformation) ([2]; Day 11, Fat media + cue): -1.199
MCP-1 relative expression (z-transformation) ([2]; Day 11, Fat media + cue): -2.479
MCP-3 relative expression (z-transformation) ([2]; Day 11, Fat media + cue): -1.098
MDC relative expression (z-transformation) ([2]; Day 11, Fat media + cue): -1.98
MIP-1a relative expression (z-transformation) ([2]; Day 11, Fat media + cue): -0.8147
MIP-1b relative expression (z-transformation) ([2]; Day 11, Fat media + cue): -0.9274
VEGF relative expression (z-transformation) ([2]; Day 11, Fat media + cue): -1.0705
Eotaxin relative expression (z-transformation) ([2]; Day 14, Fat media + cue): -0.1613
FGF-2 relative expression (z-transformation) ([2]; Day 14, Fat media + cue): -0.6319
Fractalkine relative expression (z-transformation) ([2]; Day 14, Fat media + cue): -0.3551
G-CSF relative expression (z-transformation) ([2]; Day 14, Fat media + cue): -1.591
GM-CSF relative expression (z-transformation) ([2]; Day 14, Fat media + cue): -1.001
GRO relative expression (z-transformation) ([2]; Day 14, Fat media + cue): -0.8633
IFN-a2 relative expression (z-transformation) ([2]; Day 14, Fat media + cue): -1.669
IL-1RA relative expression (z-transformation) ([2]; Day 14, Fat media + cue): -1.544
IL-4 relative expression (z-transformation) ([2]; Day 14, Fat media + cue): -1.577
IL-6 relative expression (z-transformation) ([2]; Day 14, Fat media + cue): -0.7817
IL-7 relative expression (z-transformation) ([2]; Day 14, Fat media + cue): -1.113
IL-8 relative expression (z-transformation) ([2]; Day 14, Fat media + cue): -1.061
IL-15 relative expression (z-transformation) ([2]; Day 14, Fat media + cue): -1.074
IP-10 relative expression (z-transformation) ([2]; Day 14, Fat media + cue): -0.9907
MCP-1 relative expression (z-transformation) ([2]; Day 14, Fat media + cue): -1.142
MCP-3 relative expression (z-transformation) ([2]; Day 14, Fat media + cue): -1.036
MDC relative expression (z-transformation) ([2]; Day 14, Fat media + cue): -1.936
MIP-1a relative expression (z-transformation) ([2]; Day 14, Fat media + cue): -0.7839
MIP-1b relative expression (z-transformation) ([2]; Day 14, Fat media + cue): -0.9403
TNFa relative expression (z-transformation) ([2]; Day 14, Fat media + cue): -0.8637
VEGF relative expression (z-transformation) ([2]; Day 14, Fat media + cue): 3.004
TNFα ([2]; day 14): greatest increase
Fibronectin (Fold change in cytokine production compared to control) ([3]; Day 6, high NPC): 0.5839
Pro-collagen 1 (Fold change in cytokine production compared to control) ([3]; Day 6, high NPC): -0.1232
TIMP-1 (Fold change in cytokine production compared to control) ([3]; Day 6, high NPC): -0.5668
Fibronectin (Fold change in cytokine production compared to control) ([3]; Day 11, high NPC): 0.3927
Pro-collagen 1 (Fold change in cytokine production compared to control) ([3]; Day 11, high NPC): 0.4365
TIMP-1 (Fold change in cytokine production compared to control) ([3]; Day 11, high NPC): -0.1305
Fibronectin (Fold change in cytokine production compared to control) ([3]; Day 14, high NPC): -0.4332
Pro-collagen 1 (Fold change in cytokine production compared to control) ([3]; Day 14, high NPC): 0.3527
TIMP-1 (Fold change in cytokine production compared to control) ([3]; Day 14, high NPC): -0.3247
